Assay results published in patent US20230124862A1, “BISMUTH THIOL COMPOUNDS AND COMPOSITIONS AND METHODS OF TREATING MICROBIAL CO-INFECTIONS” (Microbion Corporation, priority 2020, published 2023).

Assay: Particle size distribution of BisEDT samples vs processing conditions
Format: physicochemical
[1] = particle size distribution of BisEDT samples

Row | Structure (SMILES) | D(10) (crystalline BisEDT samples) [μm] | D(50) (crystalline BisEDT samples) [μm] | D(90) (crystalline BisEDT samples) [μm] | D[4, 3] (crystalline BisEDT samples) [μm] | D(10) [1] [μm] | D(50) [1] [μm] | D(90) [1] [μm] | D[4, 3] [1] [μm]
1 | C1C[S][Bi]([S]CC[S][Bi]2[S]CC[S]2)[S]1 [Sample 1] | 0.80 | 2.4 | 5.9 | 2.9 | 0.80 | 2.4 | 5.9 | 2.9
2 | C1C[S][Bi]([S]CC[S][Bi]2[S]CC[S]2)[S]1 [Sample 2] | 0.58 | 1.7 | 3.9 | 2.0 | 0.58 | 1.7 | 3.9 | 2.0
3 | C1C[S][Bi]([S]CC[S][Bi]2[S]CC[S]2)[S]1 [Sample 3] | 0.59 | 1.9 | 4.5 | 2.3 | 0.59 | 1.9 | 4.5 | 2.3
4 | C1C[S][Bi]([S]CC[S][Bi]2[S]CC[S]2)[S]1 [Sample 4] | 0.44 | 1.48 | 3.1 | 1.7 | 0.44 | 1.48 | 3.1 | 1.7
5 | C1C[S][Bi]([S]CC[S][Bi]2[S]CC[S]2)[S]1 [Sample 5] | 0.33 | 0.72 | 1.6 | 0.86 | 0.33 | 0.72 | 1.6 | 0.86
6 | C1C[S][Bi]([S]CC[S][Bi]2[S]CC[S]2)[S]1 [Sample 6] | 0.34 | 0.87 | 1.8 | 0.98 | 0.34 | 0.87 | 1.8 | 0.98
7 | C1C[S][Bi]([S]CC[S][Bi]2[S]CC[S]2)[S]1 [Sample 7] | 0.39 | 1.3 | 1.6 | 1.4 | 0.39 | 1.3 | 1.6 | 1.4
8 | C1C[S][Bi]([S]CC[S][Bi]2[S]CC[S]2)[S]1 [Sample 8] | 0.36 | 1.0 | 1.8 | 1.0 | 0.36 | 1.0 | 1.8 | 1.0
9 | C1C[S][Bi]([S]CC[S][Bi]2[S]CC[S]2)[S]1 [Sample 9] | 0.67 | 1.0 | 1.9 | 1.1 | 0.67 | 1.0 | 1.9 | 1.1
10 | C1C[S][Bi]([S]CC[S][Bi]2[S]CC[S]2)[S]1 [Sample 10] | 0.36 | 0.88 | 1.7 | 0.97 | 0.36 | 0.88 | 1.7 | 0.97
11 | C1C[S][Bi]([S]CC[S][Bi]2[S]CC[S]2)[S]1 [Sample 11] | 0.38 | 1.2 | 2.4 | 1.4 | 0.38 | 1.2 | 2.4 | 1.4
12 | C1C[S][Bi]([S]CC[S][Bi]2[S]CC[S]2)[S]1 [Sample 12] | 0.37 | 1.2 | 2.4 | 1.3 | 0.37 | 1.2 | 2.4 | 1.3
13 | C1C[S][Bi]([S]CC[S][Bi]2[S]CC[S]2)[S]1 [Sample 13] | 0.36 | 0.98 | 2.1 | 1.2 | 0.36 | 0.98 | 2.1 | 1.2
14 | C1C[S][Bi]([S]CC[S][Bi]2[S]CC[S]2)[S]1 [Sample 14] | 0.36 | 1.0 | 2.1 | 1.2 | 0.36 | 1.0 | 2.1 | 1.2
15 | C1C[S][Bi]([S]CC[S][Bi]2[S]CC[S]2)[S]1 [Sample 15] | 0.32 | 0.72 | 1.6 | 0.86 | 0.32 | 0.72 | 1.6 | 0.86
